Measured values published in paper PMC10451018 (Protein Science : A Publication of the Protein Society, 2023).

Legend:
[1] = molecular target: T1, Azorhizobium caulinodans malic enzyme, AcME (Azorhizobium caulinodans, UniProt A8IFW0); experiment: spectrophotometric NADH formation at […] nm; format: biochemical; conditions: L-malate as co-substrate
T1 sequence (A8IFW0 1-759): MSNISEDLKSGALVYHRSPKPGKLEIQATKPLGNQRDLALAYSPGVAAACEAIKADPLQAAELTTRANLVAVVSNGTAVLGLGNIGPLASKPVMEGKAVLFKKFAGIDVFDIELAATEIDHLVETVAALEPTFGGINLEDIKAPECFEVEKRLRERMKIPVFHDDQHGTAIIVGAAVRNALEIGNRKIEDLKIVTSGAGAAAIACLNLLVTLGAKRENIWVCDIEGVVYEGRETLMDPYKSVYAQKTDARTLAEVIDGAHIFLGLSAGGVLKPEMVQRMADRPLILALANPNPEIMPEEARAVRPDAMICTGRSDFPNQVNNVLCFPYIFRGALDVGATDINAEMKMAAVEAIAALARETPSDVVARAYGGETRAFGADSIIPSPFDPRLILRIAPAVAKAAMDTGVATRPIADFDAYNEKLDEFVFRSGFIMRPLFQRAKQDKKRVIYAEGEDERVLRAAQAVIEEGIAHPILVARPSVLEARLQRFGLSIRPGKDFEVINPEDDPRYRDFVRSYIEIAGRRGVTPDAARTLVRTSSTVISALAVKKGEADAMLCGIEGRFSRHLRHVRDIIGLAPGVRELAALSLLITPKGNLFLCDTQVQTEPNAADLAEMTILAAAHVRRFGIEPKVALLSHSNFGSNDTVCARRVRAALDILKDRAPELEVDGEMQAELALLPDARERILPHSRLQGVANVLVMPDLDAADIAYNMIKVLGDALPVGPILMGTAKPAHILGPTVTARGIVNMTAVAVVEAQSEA

[2] = molecular target: T2, Aeropyrum pernix malate dehydrogenase, ApMDH (Aeropyrum pernix, UniProt Q9YEA1); experiment: spectrophotometric NADH formation at […] nm; format: biochemical; conditions: L-malate as co-substrate
T2 sequence (Q9YEA1 1-308): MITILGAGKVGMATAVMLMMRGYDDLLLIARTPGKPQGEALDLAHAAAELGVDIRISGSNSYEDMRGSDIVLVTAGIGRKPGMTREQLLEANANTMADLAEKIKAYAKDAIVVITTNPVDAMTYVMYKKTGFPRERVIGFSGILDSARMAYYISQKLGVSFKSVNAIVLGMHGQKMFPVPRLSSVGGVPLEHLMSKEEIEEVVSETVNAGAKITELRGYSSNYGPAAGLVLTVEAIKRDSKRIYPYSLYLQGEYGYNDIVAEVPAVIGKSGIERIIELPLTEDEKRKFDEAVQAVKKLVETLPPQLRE

Compound: NC(=O)c1ccc[n+]([C@@H]2O[C@H](COP(=O)(O)OP(=O)(O)OC[C@H]3O[C@@H](n4cnc5c(N)ncnc54)[C@H](O)[C@@H]3O)[C@@H](O)[C@H]2O)c1 [NAD^+]
- spectrophotometric NADH formation at 340 nm [1]: oxidation of L‐malate was accompanied by reduction of NAD^+ to NADH
- spectrophotometric NADH formation at 340 nm [2]: oxidation of L‐malate was accompanied by reduction of NAD^+ to NADH
